Key:
Articular chondrocytes [1] = assay: Biochemical analysis (GAG, OHP) and histology of constructs, Example 2; format: cell-based, bovine
Description: (§1) Articular chondrocytes were harvested from juvenile bovine wrist joints (2-4 weeks old), and digested for 8 hrs at 37° C. with Collagenase V (Sigma) to isolate chondrocytes. The cells were expanded for one passage in DMEM media containing 10% FBS, 1% PSAM, 5 ng/ml bFGF, 10 ng/ml PDGF, and 1 ng/ml of TGF-b1 (plating density=180 cells/cm^2) (see Ng et al. 2010 Tissue Eng Part A 16(3), 1041-1051). The passaged cells were seeded in 2% w/v agarose hydrogel scaffold (Type VII, Sigma Inc.) at a concentration of 30M cells/ml. Samples were cored (diameter=4 mm, thickness=2.34 mm) and cultured in chondrogenically-defined media (CM: DMEM with 0.1 uM dexamethasone, 40 mg/mL L-proline, 50 mg/mL ascorbate 2-phosphate, […] sodium pyruvate, 1×ITS+premix, 100 U/ml penicillin, and […] streptomycin and amphotericin B) supplemented with TGF-β3 for the first 14 days. Constructs grown without TMAO served as control.
(§2) Six culture medias were evaluated, with serum free media containing ascorbic acid and 10 ng/ml of TGF-b3 for the first 14 days used as the control (see Lima et al. 2007 Osteoarthritis Cartilage 15(9), 1025-1033). TMAO was added to the media at concentrations of 55 mM and 180 mM, and urea was added to the media at concentrations of 90 mM and 360 mM. The final group included a combination (combo) of TMAO (180 mM) and urea (360 mM).
(§3) The equilibrium Young's (Eγ) and dynamic modulus was determined under 10% unconfined compression. Biochemical analysis was performed to determine the GAG, hydroxyproline (OHP) and DNA content. GAG and OHP values were normalized to the DNA content and wet weight. Tested samples were fixed for histology and stained with Picosirius Red and Safranin-O to determine the distribution of collagen and GAG, respectively. Mechanical, biochemical and histological analysis was performed every two weeks (n=4/5). A two-way ANOVA (factors: culture day and treatment) was performed to evaluate the treatment for mechanical and biochemical analysis with a Bonferroni post hoc analysis.

[2] = system: nucleus pulposus (spine tissue) cells; assay: GAG and OHP (collagen) content of nucleus pulposus micropellets, Example 5; format: cell-based
Description: as §3
(§4) Methods are according to Example 2 unless otherwise indicated.
Micropellets (scaffold-free constructs comprised of aggregated cells only) consisting of nucleus pulposus (spine tissue) cells were cultured for […]. The media was supplement with either 5 mM or 50 mM TMAO. Micropellets cultured in CM were used as the control. Micropellets were cultured for 6 weeks and analyzed for biochemistry (i.e. GAG, DNA and OHP contents).

Articular chondrocytes [3] = assay: Biochemical content of constructs digested with chondroitinase ABC, then cultured with CM or TMAO, Example 4; format: cell-based, bovine
Description: as §1
(§5) The equilibrium Young's (Eγ) and dynamic modulus was determined under 10% unconfined compression. Biochemical analysis was performed to determine the GAG, hydroxyproline (OHP) and DNA content. GAG and OHP values were normalized to the DNA content and wet weight. Tested samples were fixed for histology and stained with Picosirius Red and Safranin-O to determine the distribution of collagen and GAG, respectively. […]

[4] = system: Immature bovine chondrocytes; assay: Stiffness (Young's modulus) of engineered constructs cultured with supplemented media, Example 1; format: cell-based; conditions: TMAO 180 or 55 mM from day 0; day 28 of culture
Description: Immature bovine chondrocytes were enzymatically isolated and encapsulated in 2% w/v type VII agarose (Sigma). Engineered cylindrical constructs were cultured in serum-free chondrogenic media (ITS+, ascorbic acid, dexamethasone, pen/strep) and transforming growth factor beta-3 (TGFβ3) for the first 14 days.
The culture media of some constructs were supplemented from day 0 with TMAO (180 or 55 mM), urea (360 or 90 mM) or TMAO+urea (combo: 360 mM urea and 180 mM TMAO which is the physiological ratio found in shark tissue).

Articular chondrocytes [5] = assay: Equilibrium modulus of constructs digested with chondroitinase ABC, then cultured with CM or TMAO, Example 4; format: cell-based, bovine
Description: as §1, §3, §4
Mature constructs were enzymatically digested for 48 hours at day 14 with 0.15 U/mL of chondroitinase ABC (chABC), which degrades proteoglycans, then cultured with CM or CM supplemented with 5 mM of TMAO. […] Following the digestion, constructs were cultured in either CM or CM supplemented with 5 mM TMAO. A Student's t-test was performed to compare properties of the constructs cultured in CM or CM supplemented with TMAO. Significance was set at ? =0.05.

Articular chondrocytes [6] = assay: Equilibrium Young's and dynamic modulus under 10% unconfined compression, Example 2; format: cell-based, bovine; conditions: for mechanical properties (Young's modulus) versus control group: day 28
Description: as §1, §2, §3

Articular chondrocytes [7] = assay: Young's and dynamic modulus after transient application of TMAO, Example 3; format: cell-based, bovine; conditions: 50 mM TMAO for the first 14 days (transient); day 42
Description: as §1, §5

Articular chondrocytes [8] = assay: GAG and OHP content after transient application of TMAO, Example 3; format: cell-based, bovine
Description: as §1, §3
Culture media was supplemented with 0 mM, 5 mM, 50 mM, 100 mM or 200 mM of TMAO for the first 14 days of culture (transient application).
Methods are according to Example 2 unless otherwise indicated. Statistical analysis included a two-way ANOVA (factors: time & concentration) with a Bonferonni post-hoc test.

[9] = 5 mM TMAO after chABC digestion, by day 28, persisted to day 42
[10] = high concentration of urea (360 mM)
[11] = lower concentrations of urea (90 mM)

C[N+](C)(C)[O-] [TMAO, Trimethylamine N-oxide]
normalized GAG content versus control (Articular chondrocytes [1]; 55 mM TMAO, day 28): significantly greater than control | normalized collagen content versus control (Articular chondrocytes [1]; 55 mM TMAO, day 28): significantly greater than control | histology: distribution of GAG and collagen throughout the thickness of the construct (Articular chondrocytes [1]; 55 mM TMAO, day 28, Picosirius Red and Safranin-O): even distribution | GAG production of the micropellets ([2]; 5 mM or 50 mM TMAO, normalized by DNA content at day 42 (FIG. 9A)): graded effect | increase in collagen production ([2]; CM supplemented with TMAO (5 mM or 50 mM), normalized by DNA content at day 42 (FIG. 9B)): 50% | biochemical properties relative to CM alone (Articular chondrocytes [3]; [9]): significantly greater | collagen content compared to the control (Articular chondrocytes [3]; TMAO supplement following the chABC digestion): increases the collagen content | Young's modulus (stiffness) versus control group [4]: two-fold | mechanical properties relative to CM alone (Articular chondrocytes [5]; [9]): significantly greater | recovery of the mechanical properties (Articular chondrocytes [5]; TMAO supplement following the chABC digestion, compared to the control): quicker recovery | EY (equilibrium Young's modulus) (Articular chondrocytes [5]; day 42, CM with 5 mM TMAO after chABC digestion, CM group 115.6±38.1 kPa): 235.6±75.8 kPa | mechanical properties (Young's modulus) versus control group (Articular chondrocytes [6]; 55 mM TMAO): 2 × | mechanical properties (Young's modulus) versus control group (Articular chondrocytes [6]; 180 mM TMAO): 2 × | Young's modulus versus control group (Articular chondrocytes [7]): significantly greater than the control group | dynamic modulus versus control group (Articular chondrocytes [7]): significantly greater than the control group | OHP content greater than the control values (Articular chondrocytes [8]; 100 mM TMAO, day 28): approximately 50% | GAG content (normalized to wet weight) greater than control values (Articular chondrocytes [8]; TMAO 5 mM, 50 mM and 100 mM, day 42): up to 17% | OHP content (normalized to the wet weight) versus control (Articular chondrocytes [8]; TMAO groups, day 28, reaching significance for 50 mM and 100 mM): greater than the control

NC(N)=O [urea, reference compound]
biochemical properties versus day 0 (Articular chondrocytes [1]; [10]): did not increase from day 0 | effect on biochemical properties (Articular chondrocytes [1]; [11]): did not have adverse effects | mechanical properties versus day 0 (Articular chondrocytes [6]; [10]): did not increase from day 0 | effect on mechanical properties (Articular chondrocytes [6]; [11]): did not have adverse effects

Source: patent publication US9321993B2, “Tissue culture method for producing cartilage using trimethylamine N-oxide and chondroitinase” (The Trustees of Columbia University in the City of New York, priority 2010, dated 2016)
